Values joined by “and” are separate entries in the source; they are usually repeats but may differ in a detail not shown here. Equal values may be shown once.
Legend:
Murine norovirus = test: ASTM E1052 Kill Time Screen test, antiviral activity; assay type: cell-based
[1] = test system: Pseudomonas aeruginosa ISI 1462; test: Minimal inhibitory concentration (MIC); assay type: cell-based
Method: (§1) Minimum inhibitory concentrations (MICs) are defined as the lowest concentration of an antimicrobial that will inhibit the visible growth of a microorganism after a standardized incubation. In the present study, MIC assay was performed by pipetting robot. The principle is that an indicator microorganism at a defined cell density is cultured with a range of concentrations of the test compound, one concentration pr, well in a row on the microtiter plate. For bacteria and yeasts the minimal inhibitory concentration was detected as no increase of optical density (OD), for moulds microtiter plates were read visually. Each indicator organism is tested in duplicate and the MIC is calculated as the average of the two determinations. The tested concentrations of the antimicrobial substances were 2-fold dilutions from 5%. All indicator organisms (see Table 2.) were pre-cultivated in a suitable growth medium and diluted in the same medium to give a final concentration in the assay of ˜1×10^3 cfu/ml. The microtiter plates were incubated under specific incubation conditions (see Table III). [table]

[2] = test system: Streptococcus termophilus ISI 1563; test: Minimal inhibitory concentration (MIC); assay type: cell-based
Method: as §1

[3] = test system: Candida albicans ISI 1226; test: Minimal inhibitory concentration (MIC); assay type: cell-based
Method: as §1

Bacillus cereus ISI 842 = test: Minimal inhibitory concentration (MIC); assay type: cell-based
Method: as §1

[4] = test system: Salmonella Infantis ISI 170; test: Minimal inhibitory concentration (MIC); assay type: cell-based
Method: as §1

[5] = test system: Lactobacillus brevis ISI 2269; test: Minimal inhibitory concentration (MIC); assay type: cell-based
Method: as §1

[6] = test system: Listeria monocytogenes ISI 22; test: Minimal inhibitory concentration (MIC); assay type: cell-based
Method: as §1

Aspergillus niger ISI 3 = test: Minimal inhibitory concentration (MIC); assay type: cell-based
Method: as §1

[7] = test system: Leuconostoc mesenteroides ISI 504; test: Minimal inhibitory concentration (MIC); assay type: cell-based
Method: as §1

[8] = test system: Enterococcus hierae, ATCC 10541; test: EN 1276 quantitative suspension test, bactericidal activity; assay type: cell-based, Enterococcus hirae; settings: all tested contact times (5, 60 min) and concentrations (1.5%, 3%, 6%)
Method: The test was carried out according to EN 1276, 2019: Chemical disinfectants and antiseptics-Quantitative suspension test for the evaluation of bactericidal activity of chemical disinfectants and antiseptics used in food, industrial, domestic, and institutional areas-Test method and requirements. […] The growth media TSB (Tryptic Soy Broth) was separately inoculated with a culture loop of the microorganisms. The cultures were incubated at 37° C. for 24 hours. Bovine Serum Albumin with a final concentration of 3 g/L Polysorbate 80 with a concentration of 30 g/L The used method was Dilution-neutralization method. 1 mL of interfering substance was pipetted into a tube and 1 mL of the test suspension was added and mixed. […] The solution was incubated at 20° C. for 5 min. and 60 min. respectively. […] After 5 min. of neutralization time 100 μL of the mixture was added to a petri-dish containing TSA media. Another 100 μL was added to a tube containing 900 μL 0.9% NaCl and a serial dilution to 10^-5 was made. The mixtures added to the agar plates were evenly distributed with a Drigalski-spatula. The agar plates were incubated at 37° C. for 24 hours. After incubation, the number of surviving bacteria (CFU) was counted. The test was performed in 3 replicates.

Coniophora puteana = test: Wood impregnation with 10 and 20% NBDA, 6 weeks of exposure; assay type: cell-based; settings: for Corrected mass loss, Mean / Mass loss, Mean / Corrected mass loss / Mass loss: 6 weeks of exposure; for Corrected mass loss, Mean / Mass loss, Mean: mean of blocks; for Corrected mass loss / Mass loss: single blocks
Text: Below table presents results from impregnation with 10 and 20% NBDA to water phase. It is expected that concentrations of up to at least 35% NBDA and/or APDEA and/or 2,2′-(octylimino)bisethanol are showing promising results.

SMILES: CCCCN(CCO)CCO [NBDA, N-butyldiethanolamine]
- Mean log reduction after 60 seconds (Murine norovirus; 1.0% NBDA): 0.34
- Mean log reduction after 60 seconds (Murine norovirus; 5.0% NBDA): 0.34
- Norovirus eliminated (destroyed) in 60 seconds (Murine norovirus; from log reduction 0.34): 54%
- MIC (%) [1]: 0.63%
- MIC data (optical density) ([1]; 0.02% NBDA): 1.725 and 1.921
- MIC data (optical density) ([1]; 0.04% NBDA): 1.894 and 1.661
- MIC data (optical density) ([1]; 0.08% NBDA): 1.938 and 1.871
- MIC data (optical density) ([1]; 0.16% NBDA): 1.888 and 1.911
- MIC data (optical density) ([1]; 0.31% NBDA): 1.668 and 1.319
- MIC data (optical density) ([1]; 0.63% NBDA): 0.047 and 0.044
- MIC data (optical density) ([1]; 1.25% NBDA): 0.045 and 0.043
- MIC data (optical density) ([1]; 2.50% NBDA): 0.046 and 0.047
- MIC data (optical density) ([1]; 5.00% NBDA): 0.045
- MIC (%) [2]: 0.63%
- MIC data (optical density) ([2]; 0.02% NBDA): 0.57 and 0.515
- MIC data (optical density) ([2]; 0.04% NBDA): 0.445 and 0.473
- MIC data (optical density) ([2]; 0.08% NBDA): 0.431 and 0.462
- MIC data (optical density) ([2]; 0.16% NBDA): 0.444 and 0.438
- MIC data (optical density) ([2]; 0.31% NBDA): 0.115 and 0.108
- MIC data (optical density) ([2]; 0.63% NBDA): 0.046 and 0.043
- MIC data (optical density) ([2]; 1.25% NBDA): 0.044 and 0.045
- MIC data (optical density) ([2]; 2.50% NBDA): 0.049
- MIC data (optical density) ([2]; 5.00% NBDA): 0.041 and 0.042
- MIC (%) [3]: 0.63%
- MIC data (optical density) ([3]; 0.02% NBDA): 1.272 and 1.291
- MIC data (optical density) ([3]; 0.04% NBDA): 1.243 and 1.259
- MIC data (optical density) ([3]; 0.08% NBDA): 1.223 and 1.256
- MIC data (optical density) ([3]; 0.16% NBDA): 1.118 and 1.134
- MIC data (optical density) ([3]; 0.31% NBDA): 0.886 and 0.984
- MIC data (optical density) ([3]; 0.63% NBDA): 0.056
- MIC data (optical density) ([3]; 1.25% NBDA): 0.051 and 0.050
- MIC data (optical density) ([3]; 2.50% NBDA): 0.047 and 0.046
- MIC data (optical density) ([3]; 5.00% NBDA): 0.042 and 0.044
- MIC (%) (Bacillus cereus ISI 842): 1.25%
- MIC data (optical density) (Bacillus cereus ISI 842; 0.02% NBDA): 0.797 and 0.933
- MIC data (optical density) (Bacillus cereus ISI 842; 0.04% NBDA): 0.953 and 0.926
- MIC data (optical density) (Bacillus cereus ISI 842; 0.08% NBDA): 0.880 and 0.764
- MIC data (optical density) (Bacillus cereus ISI 842; 0.16% NBDA): 0.716 and 0.833
- MIC data (optical density) (Bacillus cereus ISI 842; 0.31% NBDA): 0.811 and 0.739
- MIC data (optical density) (Bacillus cereus ISI 842; 0.63% NBDA): 0.664 and 0.824
- MIC data (optical density) (Bacillus cereus ISI 842; 1.25% NBDA): 0.108 and 0.143
- MIC data (optical density) (Bacillus cereus ISI 842; 2.50% NBDA): 0.100 and 0.145
- MIC data (optical density) (Bacillus cereus ISI 842; 5.00% NBDA): 0.087 and 0.120
- MIC (%) [4]: 1.25%
- MIC data (optical density) ([4]; 0.02% NBDA): 1.662 and 1.413
- MIC data (optical density) ([4]; 0.04% NBDA): 1.501 and 1.629
- MIC data (optical density) ([4]; 0.08% NBDA): 1.640 and 1.623
- MIC data (optical density) ([4]; 0.16% NBDA): 1.566 and 1.546
- MIC data (optical density) ([4]; 0.31% NBDA): 1.389 and 1.282
- MIC data (optical density) ([4]; 0.63% NBDA): 0.905 and 0.965
- MIC data (optical density) ([4]; 1.25% NBDA): 0.046 and 0.040
- MIC data (optical density) ([4]; 2.50% NBDA): 0.047 and 0.044
- MIC data (optical density) ([4]; 5.00% NBDA): 0.044 and 0.043
- MIC (%) [5]: 0.16%
- MIC data (optical density) ([5]; 0.02% NBDA): 0.509 and 0.458
- MIC data (optical density) ([5]; 0.04% NBDA): 0.468 and 0.485
- MIC data (optical density) ([5]; 0.08% NBDA): 0.465 and 0.586
- MIC data (optical density) ([5]; 0.16% NBDA): 0.054 and 0.057
- MIC data (optical density) ([5]; 0.31% NBDA): 0.049 and 0.048
- MIC data (optical density) ([5]; 0.63% NBDA): 0.047 and 0.046
- MIC data (optical density) ([5]; 1.25% NBDA): 0.047 and 0.045
- MIC data (optical density) ([5]; 2.50% NBDA): 0.046 and 0.049
- MIC data (optical density) ([5]; 5.00% NBDA): 0.043 and 0.040
- MIC (%) [6]: 1.25%
- MIC data (optical density) ([6]; 0.02% NBDA): 1.182 and 1.216
- MIC data (optical density) ([6]; 0.04% NBDA): 1.184 and 1.216
- MIC data (optical density) ([6]; 0.08% NBDA): 1.165 and 1.119
- MIC data (optical density) ([6]; 0.16% NBDA): 1.074 and 0.574
- MIC data (optical density) ([6]; 0.31% NBDA): 1.027 and 0.645
- MIC data (optical density) ([6]; 0.63% NBDA): 0.938 and 0.759
- MIC data (optical density) ([6]; 1.25% NBDA): 0.047 and 0.048
- MIC data (optical density) ([6]; 2.50% NBDA): 0.046 and 0.056
- MIC data (optical density) ([6]; 5.00% NBDA): 0.045 and 0.056
- MIC (%) (Aspergillus niger ISI 3): 0.63%
- MIC (%) [7]: 0.31%
- MIC data (optical density) ([7]; 0.02% NBDA): 1.025 and 0.943
- MIC data (optical density) ([7]; 0.04% NBDA): 1.135 and 1.104
- MIC data (optical density) ([7]; 0.08% NBDA): 1.005 and 1.027
- MIC data (optical density) ([7]; 0.16% NBDA): 1.065 and 0.990
- MIC data (optical density) ([7]; 0.31% NBDA): 0.051 and 0.052
- MIC data (optical density) ([7]; 0.63% NBDA): 0.047 and 0.049
- MIC data (optical density) ([7]; 1.25% NBDA): 0.046 and 0.047
- MIC data (optical density) ([7]; 2.50% NBDA): 0.046
- MIC data (optical density) ([7]; 5.00% NBDA): 0.044 and 0.041
- log changes of CFU [8]: lower than 5 log units
- wood protection at high concentrations (Coniophora puteana; impregnation with 10 and 20% NBDA to water phase): strong results
- Corrected mass loss, Mean (Coniophora puteana; solution conc. 10.00 % w/w): 0.3%
- Mass loss, Mean (Coniophora puteana; solution conc. 10.00 % w/w): −0.4%
- Corrected mass loss (Coniophora puteana; solution conc. 10.00 % w/w): −0.4% and 0.3% and 0.9% and 0.0% and 1.1% and −0.2% and −0.8%
- Mass loss (Coniophora puteana; solution conc. 10.00 % w/w): −0.9% and −0.2% and 0.4% and −0.5% and 0.6% and −0.7% and −1.3%
- Corrected mass loss, Mean (Coniophora puteana; solution conc. 20.00 % w/w): 0.0%
- Mass loss, Mean (Coniophora puteana; solution conc. 20.00 % w/w): −1.5%
- Corrected mass loss (Coniophora puteana; solution conc. 20.00 % w/w): 0.3% and −0.1% and −0.5% and −0.8% and −0.7% and −0.6%
- Mass loss (Coniophora puteana; solution conc. 20.00 % w/w): −0.7% and −1.1% and −1.6% and −1.8% and −1.7%
